Data: patent US6921767B2, “Cycloalkyl alkanoic acids as integrin receptor antagonists derivatives” (Pharmacia Corporation, priority 2000, dated 2005)

Experiment: IC50 test to confirm desired/undesired isomer (assay not specified)
Details: qualitative outcome only, no number given

tested for IC50 to confirm as desired / undesired compound (hydrochloride) | tested for IC50 to confirm as desired / undesired compound | SMILES
undesired isomer | – | Cl.O=C(O)CC1C(c2ccc(OCCc3ccc4c(n3)NCCC4)cc2)C1(Cl)Cl (single isomer, unassigned) [Example 85, first peak, (2,2-Dichloro-3-{4-[2-(5,6,7,8-tetrahydro-1,8-naphthyridin-2-yl)ethoxy]phenyl}cyclopropyl)acetic acid hydrochloride]
desired compound | – | Cl.O=C(O)CC1C(c2ccc(OCCc3ccc4c(n3)NCCC4)cc2)C1(Cl)Cl (single isomer, unassigned) [Example 85, second peak, (2,2-Dichloro-3-{4-[2-(5,6,7,8-tetrahydro-1,8-naphthyridin-2-yl)ethoxy]phenyl}cyclopropyl)acetic acid hydrochloride]
– | desired compound | CN1CCNc2nc(CCOc3ccc(C4CC4CC(=O)O)cc3)ccc21 (single isomer, unassigned; (+)) [Example 81, ((+)-2-{4-[2-(1-methyl-1,2,3,4-tetrahydropyrido[2,3-b]pyrazin-^6-yl)ethoxy]phenyl}cyclopropyl)acetic acid]
– | undesired compound | CN1CCNc2nc(CCOc3ccc(C4CC4CC(=O)O)cc3)ccc21 (single isomer, unassigned; (-)) [Example 82, ((−)-2-{4-[2-(1-methyl-1,2,3,4-tetrahydropyrido[2,3-b]pyrazin-6-yl)ethoxy]phenyl}cyclopropyl)acetic acid]
